Assay results taken from patent publication US20230303552A1, “ARYLSULFONYL DERIVATIVES AND THEIR USE AS MUSCARINIC ACETYLCHOLINE RECEPTOR M5 INHIBITORS” (Vanderbilt University, priority 2020, published 2023).

Target: T1, human M5 receptors (hM5) (Homo sapiens, UniProt P08912)
T1 construct: expressed in transfected cells
T1 sequence (P08912 1-532): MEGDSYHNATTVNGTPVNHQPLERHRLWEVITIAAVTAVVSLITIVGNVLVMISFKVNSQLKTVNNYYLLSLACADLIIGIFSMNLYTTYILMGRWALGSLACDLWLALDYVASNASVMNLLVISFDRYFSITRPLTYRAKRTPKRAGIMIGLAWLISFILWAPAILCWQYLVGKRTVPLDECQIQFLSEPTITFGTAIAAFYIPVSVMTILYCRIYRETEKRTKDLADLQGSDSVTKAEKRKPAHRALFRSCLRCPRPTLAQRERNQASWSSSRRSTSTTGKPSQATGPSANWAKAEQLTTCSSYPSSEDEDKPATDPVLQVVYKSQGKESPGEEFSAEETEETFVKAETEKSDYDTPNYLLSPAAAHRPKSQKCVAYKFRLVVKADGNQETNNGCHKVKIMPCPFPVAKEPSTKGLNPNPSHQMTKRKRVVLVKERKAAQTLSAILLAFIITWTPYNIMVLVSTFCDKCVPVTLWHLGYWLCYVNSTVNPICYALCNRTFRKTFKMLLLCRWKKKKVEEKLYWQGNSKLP
Assay: Cell-based functional calcium mobilization assay of mAChR M5 activity (inhibition of EC80 acetylcholine response) in CHO cells
Details: CHO cells stably expressing hM5; for IC50: calcium flux (Fluo-4), EC80 acetylcholine addition; for EC80 MIN: minimum of EC80 acetylcholine response, normalized to maximum acetylcholine response
In short: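 CHO cells stably expressing human M5, loaded with Fluo-4 AM in HBSS/20 mM HEPES/2.5 mM probenecid pH 7.4. Compound added 140 s before acetylcholine EC20, then EC80 added 125 s later. Calcium flux normalized to maximal acetylcholine response; IC50 from ten-point curves in the EC80 window.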

Compound	IC50 [µM]	EC80 MIN [%]
O=C(Nc1ccc2snnc2c1)C1CCN(S(=O)(=O)c2ccc3c(c2)CCO3)CC1 [Compound 100]	0.129	14
Cc1cc2scnc2cc1NC(=O)C1CCN(S(=O)(=O)c2ccc3c(c2)CCO3)CC1 [Compound 101, 1-((2,3-dihydrobenzofuran-5-yl)sulfonyl)-N-(6-methylbenzo[d]thiazol-5-yl)piperidine-4-carboxamide]	> 10	49
O=C(Nc1cnc2scnc2c1)C1CCN(S(=O)(=O)c2ccc3c(c2)CCO3)CC1 [Compound 102, 1-((2,3-dihydrobenzofuran-5-yl)sulfonyl)-N-(thiazolo[5,4-b]pyridin-6-yl)piperidine-4-carboxamide]	> 10	56
CC1(C(=O)Nc2ccc3scnc3c2)CCN(S(=O)(=O)c2ccc3c(c2)CCO3)CC1 [Compound 104, N-(benzo[d]thiazol-5-yl)-1-((2,3-dihydrobenzofuran-5-yl)sulfonyl)-4-methylpiperidine-4-carboxamide]	> 10	3
CC1(C(=O)Nc2ccc3scnc3c2)CCN(S(=O)(=O)c2ccc3ncsc3c2)CC1 [Compound 105, N-(benzo[d]thiazol-5-yl)-1-(benzo[d]thiazol-6-ylsulfonyl)-4-methylpiperidine-4-carboxamide]	> 10	25
CC1(C(=O)Nc2ccc3scnc3c2)CCN(S(=O)(=O)c2ccc(Cl)nc2)CC1 [Compound 106, N-(benzol[d]thiazol-5-yl)-1-((6-chloropyridin-3-yl)sulfonyl)-4-methylpiperidine-4-carboxamide]	> 10	35
CC1(C(=O)Nc2ccc3scnc3c2)CCN(S(=O)(=O)c2cccc3nsnc23)CC1 [Compound 107, 1-(benz.o[c][1.2.5]thiadiazol-4-ylsulfony1)-N-(benzo[d]thiazol-5-yl)-4-methylpiperidine-4-carboxamide]	> 10	24
O=C(Nc1ccc2scnc2c1)C1(F)CCN(S(=O)(=O)c2ccc3ncsc3c2)CC1 [Compound 108]	> 10	22
Cc1nn(C)cc1S(=O)(=O)N1CCC(F)(C(=O)Nc2ccc3scnc3c2)CC1 [Compound 109, N-(benzo[d]thiazol-5-yl]-1-((1,3-dimethyl-1H-pyrazol-4-yl)sulfonyl)-4-fluoropiperidine-4-carboxamide]	> 10	9
Cn1cnc2cc(NC(=O)C3CCN(S(=O)(=O)c4ccc5c(c4)CCO5)CC3)ccc21 [Compound 110, 1-((2,3-dihydrobenzofuran-5-yl)sulfonyl)-N-(1-methyl-1H-benzo[d]imidazol-5-yl)piperidine-4-carboxamide]	> 10	53
C[C@@H]1CN(S(=O)(=O)c2ccc3c(c2)CCO3)C[C@@H]1C(=O)Nc1ccc2scnc2c1 [Compound 111, (3R,4S)-N-(benzo[d]thiazol-5-yl)-1-((2,3-dihydrobenzofuran-5-yl)sulfonyl)-4-methylpyrrolidine-3-carboxamide]	0.038	3
Cc1nn(C)cc1S(=O)(=O)N1CCC(C)(C(=O)Nc2ccc3scnc3c2)CC1 [Compound 112, N-(benzo[d]thiazol-5-yl)-1-((1,3-dimethyl-1H-pyrazol-4-yl)sulfonyl)-4-methylpiperidine-4-carboxamide]	> 10	58
O=C(Nc1ccc2scnc2c1)C1(F)CCN(S(=O)(=O)c2ccc3c(c2)CCO3)CC1 [Compound 113, N-(benzo[d]thiazol-5-yl)-1-((2.3-dihydrobenzofuran-5-yl)sulfonyl)-4-fluoropiperidine-4-carboxamide]	0.712	10
O=C(Nc1ccc2scnc2c1)C1(F)CCN(S(=O)(=O)c2cccnc2)CC1 [Compound 114, N-(benzo[d]thiazol-5-yl)-4-fluoro-1-(pyridin-3-ylsulfonyl)piperidine-4-carboxamide]	2.04	4
O=C(Nc1ccc2scnc2c1)C1(F)CCN(S(=O)(=O)c2cccc3nsnc23)CC1 [Compound 115, 1-(benzo[c][1,2,5]thiadiazol-4-ylsulfonyl)-N-(benzo[d]thiazol-5-yl)-4-fluoropiperidine-4-carboxamide]	> 10	51
Cc1ccc(S(=O)(=O)N2CCC(C(=O)Nc3ccc4scnc4c3)CC2)cn1 [Compound 124]	0.105	3

Compound	IC50 [µM]	EC80 MIN [%]
CC1(C)COc2ccc(S(=O)(=O)N3CCC(C(=O)Nc4ccc5scnc5c4)CC3)cc21 [Compound 126, N-(benzo[d]thiazol-5-yl)-1-((3,3-dimethyl-2,3-dihydrobenzofuran-5-yl)sulfonyl)piperidine-4-carboxamide]	> 10	55
CC1(C)COc2ccc(S(=O)(=O)N3CC[C@@H](C(=O)Nc4ccc5scnc5c4)C3)cc21 [Compound 127, (R)-N-(benzo[d]thiazol-5-yl)-1-((3,3-dimethyl-2,3-dihydrobenzofuran-5-yl)sulfonyl)pyrrolidine-3-carboxamide]	> 10	8
C[C@H]1CN(S(=O)(=O)c2ccc3c(c2)C(C)(C)CO3)C[C@@H]1C(=O)Nc1ccc2scnc2c1 [Compound 128, (3R,4R)-N-(benzo[d]thiazol-5-yl)-1-((3,3-dimethyl-2,3-dihydrobenzofuran-5-yl)sulfonyl)-4-methylpyrrolidine-3-carboxamide]	> 10	29
C[C@@H]1CN(S(=O)(=O)c2ccc3c(c2)C(C)(C)CO3)C[C@@H]1C(=O)Nc1ccc2scnc2c1 [Compound 129]	6.49	4
O=C(Nc1ccc2cccnc2c1)C1CCN(S(=O)(=O)c2ccc3c(c2)CCO3)CC1 [Compound 135, 1-((2,3-dihydrobenzofuran-5-yl)sulfonyl)-N-(quinolin-7-yl)pipcridinc-4-carboxamide]	1.8	3
O=C(Nc1ccc2scnc2c1)[C@@H]1CCN(S(=O)(=O)c2ccc3ncsc3c2)C1 [Compound 136, (R)-N-(benzo[d]thiazol-5-yl)-1-(benzo[d]thiazol-6-ylsulfonyl)pyrrolidine-3-carboxamide]	0.29	2
Cc1nn(C)cc1S(=O)(=O)N1CC[C@@H](C(=O)Nc2ccc3scnc3c2)C1 [Compound 137, (R)-N-(benzo[d]thiazol-5-yl)-1-((1,3-dimethyl-1H-pyrazol-4-yl)sulfonyl)pyrrolidine-3-carboxamide]	> 10	6
CC1(C)CN(S(=O)(=O)c2ccc3c(c2)CCO3)CCC1C(=O)Nc1ccc2scnc2c1 (centres unmarked) [Compound 138, N-(benzo[d]thiazol-5-yl)-1-((2,3-dihydrobenzofuran-5-yl)sulfonyl)-3,3-dimethylpiperidine-4-carboxamide]	> 10	7
[2H]C1([2H])Oc2ccc(S(=O)(=O)N3CCC(C(=O)Nc4ccc5scnc5c4)CC3)cc2C1([2H])[2H] [Compound 139, N-(benzo[d]thiazol-5-yl)-1-((2,3-dihydrobenzofuran-5-yl-2,2,3,3-d4)sulfonyl)piperidine-4-carboxamide]	0.076	2
[2H]C1([2H])Oc2ccc(S(=O)(=O)N3CC[C@@H](C(=O)Nc4ccc5scnc5c4)C3)cc2C1([2H])[2H] [Compound 140]	0.035	2
CC1(C)CN(S(=O)(=O)c2ccc3ncsc3c2)CCC1C(=O)Nc1ccc2scnc2c1 (centres unmarked) [Compound 141, N-(benzo[d]thiazol-5-yl)-1-(benzo[d]thiazol-6-ylsulfonyl)-3,3-dimethylpiperidine-4-carboxamide]	> 10	38
CC1(C)CN(S(=O)(=O)c2ccc(Cl)nc2)CCC1C(=O)Nc1ccc2scnc2c1 (centres unmarked) [Compound 142]	4.44	3
Cc1nn(C)cc1S(=O)(=O)N1CCC(C(=O)Nc2ccc3scnc3c2)C(C)(C)C1 (centres unmarked) [Compound 143, N-(benzo[d]thiazol-5-yl)-1-((1,3-dimethyl-1H-pyrazol-4-yl)sulfonyl)-3,3-dimethylpiperidine-4-carboxamide]	> 10	40
CC1(C)CN(S(=O)(=O)c2cc3c(cc2F)OCC3)CCC1C(=O)Nc1ccc2scnc2c1 (centres unmarked) [Compound 144, N-(benzo[d]thiazol-5-yl)-1-((6-fluoro-2,3-dihydrobenzofuran-5-yl)sulfonyl)-3,3-dimethylpiperidine-4-carboxamide]	> 10	25
O=C(Nc1ccc2scnc2c1)C1CCN(S(=O)(=O)c2cc3c(cc2F)OCC3)CC1(F)F (centres unmarked) [Compound 147, N-(benzo[d]thiazol-5-yl)-3,3-difluoro-1-((6-fluoro-2.3-dihydrobenzofuran-5-yl)sulfonyl)piperidine-4-carboxamide]	0.404	2
